The values below are quoted from earlier work in patent US9505976B2, “Excitation-dependent fluorescent organic nanoparticles” (National Kaohsiung Normal University, priority 2013, dated 2016).

SMILES strings stand for the structures.

For this data set the following is noted: in ethanol.

Take `CCN(CC)c1ccc2c(C)cc(=O)oc2c1` [coumarin 1, 7-diethylamino-4-methylcoumarin]: the “quantum yield of reference” value was 73%.
